A short description of data set [1]: Toxicity in Balb/c mouse model of oxazolone-induced delayed type hypersensitivity assessed as change in microscopic examination up to 30 mg/kg, po. The format is organism-based. The note with it: in vivo.
For data set [2], the target named is T1, Tyrosine-protein kinase JAK3 (Homo sapiens) (UniProt P52333).
T1 sequence (whole entry): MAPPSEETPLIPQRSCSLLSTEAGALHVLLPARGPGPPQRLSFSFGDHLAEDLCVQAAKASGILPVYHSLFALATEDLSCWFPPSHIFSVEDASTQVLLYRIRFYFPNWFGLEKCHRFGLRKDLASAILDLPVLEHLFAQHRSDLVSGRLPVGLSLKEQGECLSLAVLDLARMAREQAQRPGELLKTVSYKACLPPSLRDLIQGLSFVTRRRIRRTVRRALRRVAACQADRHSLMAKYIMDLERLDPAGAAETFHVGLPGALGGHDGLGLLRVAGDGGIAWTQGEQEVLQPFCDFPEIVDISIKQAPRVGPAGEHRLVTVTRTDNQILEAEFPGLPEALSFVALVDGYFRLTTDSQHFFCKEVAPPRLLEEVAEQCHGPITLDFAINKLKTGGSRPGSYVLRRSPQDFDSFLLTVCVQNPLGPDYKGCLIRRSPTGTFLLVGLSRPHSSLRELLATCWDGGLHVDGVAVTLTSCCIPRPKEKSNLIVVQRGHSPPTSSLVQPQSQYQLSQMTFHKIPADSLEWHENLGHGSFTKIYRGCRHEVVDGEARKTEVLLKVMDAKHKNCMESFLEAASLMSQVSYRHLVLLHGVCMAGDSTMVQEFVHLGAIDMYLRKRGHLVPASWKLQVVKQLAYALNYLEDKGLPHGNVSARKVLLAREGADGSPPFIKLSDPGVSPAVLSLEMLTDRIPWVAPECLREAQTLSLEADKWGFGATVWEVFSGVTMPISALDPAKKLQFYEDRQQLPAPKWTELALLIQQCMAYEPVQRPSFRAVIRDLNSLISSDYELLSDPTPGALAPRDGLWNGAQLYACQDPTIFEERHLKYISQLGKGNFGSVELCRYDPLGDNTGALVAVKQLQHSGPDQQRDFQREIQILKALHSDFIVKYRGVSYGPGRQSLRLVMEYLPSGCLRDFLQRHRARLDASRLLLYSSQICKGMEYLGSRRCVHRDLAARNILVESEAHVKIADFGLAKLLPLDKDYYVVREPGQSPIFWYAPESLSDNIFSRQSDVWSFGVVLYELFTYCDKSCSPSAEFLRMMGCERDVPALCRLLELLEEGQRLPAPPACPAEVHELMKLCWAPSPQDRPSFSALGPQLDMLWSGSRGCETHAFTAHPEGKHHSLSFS
The data set can be described thus: Inhibition of recombinant human GST-tagged JAK3 catalytic domain (781 to 1124 residues) expressed in baculovirus expression system using Tyr06 peptide as substrate at 100 nM incubated for 1 hr by Z'lyte assay relative to control.

Data set [3] is described as follows: MRT (0 to t) in ICR mouse at 10 mg/kg, iv administered as single dose by LC-MS/MS analysis. It counts as ADME, organism-based. As to conditions: in vivo.
Data set [4] addresses TEK (Angiopoietin-1 receptor) (Homo sapiens, UniProt Q02763). The data set can be described thus: Inhibition of recombinant human GST-tagged TEK (817 to 1101 residues) expressed in baculovirus expression system at 100 nM using Tyr 05 as substrate incubated for 1 hr in presence of ATP by Z'-LYTE assay relative to control. As to conditions: probe Tyr 05.
Data set [5] in a line: AUC (0 to infinity) in ICR mouse at 30 mg/kg, po administered as single dose via gavage by LC-MS/MS analysis. It counts as ADME, organism-based. The arrangement: time infinity, route oral, dose 30 mg/kg. As to conditions: in vivo.
Data set [6] addresses T1, Tyrosine-protein kinase JAK3 (Homo sapiens).
For data set [7] the target is unchanged. Nature of the data set: Irreversible inhibition of recombinant human GST-tagged JAK3 cytoplasmic domain (781 to 1124 residues) expressed in baculovirus expression system at IC90 using TK-substrate-biotin preincubated for 30 mins followed by 1000 fold dilution and measured after 24 hrs by HTRF assay. As to conditions: time 24.5 hrs. Background: TR-FRET usually uses a lanthanide donor and a delayed reading to cut background.

Data set [8] addresses Tyrosine-protein kinase JAK1 (Homo sapiens, UniProt P23458). Nature of the data set: Inhibition of recombinant human GST-tagged JAK1 cytoplasmic domain (866 to 1154 residues) expressed in baculovirus expression system using TK-substrate-biotin preincubated for 5 mins followed by substrate addition and measured after 30 mins by HTRF assay.
Data set [9] is described as follows: Plasma clearance in ICR mouse at 30 mg/kg, po administered as single dose via gavage by LC-MS/MS analysis. As to conditions: in vivo. It counts as ADME, organism-based.
For data set [10], the target named is T2, Tyrosine-protein kinase JAK3 (Mus musculus) (UniProt Q62137).
T2 sequence (whole entry): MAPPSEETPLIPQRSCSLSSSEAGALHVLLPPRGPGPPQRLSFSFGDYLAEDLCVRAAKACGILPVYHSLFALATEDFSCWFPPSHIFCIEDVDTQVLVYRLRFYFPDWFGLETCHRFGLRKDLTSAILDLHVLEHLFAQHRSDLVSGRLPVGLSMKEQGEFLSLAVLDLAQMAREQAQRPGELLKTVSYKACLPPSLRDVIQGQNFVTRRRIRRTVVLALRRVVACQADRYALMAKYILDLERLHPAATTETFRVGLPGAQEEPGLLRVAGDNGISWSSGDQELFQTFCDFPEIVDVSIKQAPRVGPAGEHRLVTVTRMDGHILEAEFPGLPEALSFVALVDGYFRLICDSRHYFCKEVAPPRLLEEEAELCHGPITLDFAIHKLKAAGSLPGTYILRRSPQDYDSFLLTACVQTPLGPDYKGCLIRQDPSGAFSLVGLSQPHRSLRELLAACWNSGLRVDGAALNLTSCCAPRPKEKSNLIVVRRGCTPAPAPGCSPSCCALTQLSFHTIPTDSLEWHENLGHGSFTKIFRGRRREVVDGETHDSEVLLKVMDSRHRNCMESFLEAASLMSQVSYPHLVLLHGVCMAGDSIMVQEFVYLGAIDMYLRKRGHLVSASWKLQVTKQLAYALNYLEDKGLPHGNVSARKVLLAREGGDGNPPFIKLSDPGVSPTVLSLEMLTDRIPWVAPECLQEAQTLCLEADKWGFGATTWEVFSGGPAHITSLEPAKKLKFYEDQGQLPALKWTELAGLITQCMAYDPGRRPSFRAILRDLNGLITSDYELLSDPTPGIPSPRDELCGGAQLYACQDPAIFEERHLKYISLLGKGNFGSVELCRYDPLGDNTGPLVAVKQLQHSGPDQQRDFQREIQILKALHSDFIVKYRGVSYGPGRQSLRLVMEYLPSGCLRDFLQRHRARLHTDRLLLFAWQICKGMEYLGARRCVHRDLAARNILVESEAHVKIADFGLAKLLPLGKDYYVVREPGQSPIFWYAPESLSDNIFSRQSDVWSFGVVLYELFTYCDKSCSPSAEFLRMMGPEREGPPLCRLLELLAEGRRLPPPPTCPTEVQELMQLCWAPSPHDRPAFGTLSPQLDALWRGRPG
Nature of the data set: Inhibition of JAK3 in anti-CD3/-CD28 coated mouse T cells assessed as reduction in IL15-induced STAT5 phosphorylation at 10 uM preincubated for 1 hr followed by […] and measured after 30 mins by Western blot analysis. The note with it: T cell. A general note: Immunoblotting shows a protein as a band on a membrane.

Active and inactive are the calls of the source. No cut-off for these calls is given here.

In general, inhibition refers to how much of the control response was suppressed. The term MRT last denotes a mean duration of stay, worked out from the concentration-time curve. Broadly, the AUC is the area under the concentration-time curve, a measure of exposure. High values mean more exposure, low ones less exposure. In general, IC50 refers to the concentration that gives 50% inhibition.

TEK (Angiopoietin-1 receptor), sequence (Q02763 whole entry, the tested form may be a part): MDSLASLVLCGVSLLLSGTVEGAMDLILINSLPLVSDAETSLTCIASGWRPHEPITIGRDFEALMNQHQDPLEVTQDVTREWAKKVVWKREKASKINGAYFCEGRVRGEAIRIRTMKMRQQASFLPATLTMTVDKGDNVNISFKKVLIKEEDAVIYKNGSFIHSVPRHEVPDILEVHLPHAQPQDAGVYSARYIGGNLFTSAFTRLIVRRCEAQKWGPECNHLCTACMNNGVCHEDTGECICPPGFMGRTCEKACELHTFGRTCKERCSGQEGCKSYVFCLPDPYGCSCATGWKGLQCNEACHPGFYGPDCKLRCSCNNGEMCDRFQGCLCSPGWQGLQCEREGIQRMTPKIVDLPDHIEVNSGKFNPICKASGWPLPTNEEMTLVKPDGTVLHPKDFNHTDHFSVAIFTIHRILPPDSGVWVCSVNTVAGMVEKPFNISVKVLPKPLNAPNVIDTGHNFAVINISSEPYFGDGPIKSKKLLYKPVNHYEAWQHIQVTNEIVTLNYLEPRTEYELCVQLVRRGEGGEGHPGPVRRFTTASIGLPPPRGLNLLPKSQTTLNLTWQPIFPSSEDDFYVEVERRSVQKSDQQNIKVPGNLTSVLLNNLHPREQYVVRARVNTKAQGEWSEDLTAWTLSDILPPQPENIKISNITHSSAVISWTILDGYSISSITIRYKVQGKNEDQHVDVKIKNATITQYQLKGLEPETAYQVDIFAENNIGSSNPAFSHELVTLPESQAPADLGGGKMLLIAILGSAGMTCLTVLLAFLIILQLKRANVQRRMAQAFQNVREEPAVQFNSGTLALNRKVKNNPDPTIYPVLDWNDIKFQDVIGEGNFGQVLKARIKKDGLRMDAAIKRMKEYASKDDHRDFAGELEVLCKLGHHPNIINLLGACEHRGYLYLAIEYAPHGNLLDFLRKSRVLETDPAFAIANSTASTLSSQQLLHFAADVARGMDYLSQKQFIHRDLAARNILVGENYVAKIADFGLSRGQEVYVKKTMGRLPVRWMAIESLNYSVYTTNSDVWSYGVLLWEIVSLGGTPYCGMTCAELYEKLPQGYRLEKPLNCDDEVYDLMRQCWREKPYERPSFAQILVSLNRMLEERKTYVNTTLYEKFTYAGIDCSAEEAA
Tyrosine-protein kinase JAK1, sequence (P23458 whole entry, the tested form may be a part): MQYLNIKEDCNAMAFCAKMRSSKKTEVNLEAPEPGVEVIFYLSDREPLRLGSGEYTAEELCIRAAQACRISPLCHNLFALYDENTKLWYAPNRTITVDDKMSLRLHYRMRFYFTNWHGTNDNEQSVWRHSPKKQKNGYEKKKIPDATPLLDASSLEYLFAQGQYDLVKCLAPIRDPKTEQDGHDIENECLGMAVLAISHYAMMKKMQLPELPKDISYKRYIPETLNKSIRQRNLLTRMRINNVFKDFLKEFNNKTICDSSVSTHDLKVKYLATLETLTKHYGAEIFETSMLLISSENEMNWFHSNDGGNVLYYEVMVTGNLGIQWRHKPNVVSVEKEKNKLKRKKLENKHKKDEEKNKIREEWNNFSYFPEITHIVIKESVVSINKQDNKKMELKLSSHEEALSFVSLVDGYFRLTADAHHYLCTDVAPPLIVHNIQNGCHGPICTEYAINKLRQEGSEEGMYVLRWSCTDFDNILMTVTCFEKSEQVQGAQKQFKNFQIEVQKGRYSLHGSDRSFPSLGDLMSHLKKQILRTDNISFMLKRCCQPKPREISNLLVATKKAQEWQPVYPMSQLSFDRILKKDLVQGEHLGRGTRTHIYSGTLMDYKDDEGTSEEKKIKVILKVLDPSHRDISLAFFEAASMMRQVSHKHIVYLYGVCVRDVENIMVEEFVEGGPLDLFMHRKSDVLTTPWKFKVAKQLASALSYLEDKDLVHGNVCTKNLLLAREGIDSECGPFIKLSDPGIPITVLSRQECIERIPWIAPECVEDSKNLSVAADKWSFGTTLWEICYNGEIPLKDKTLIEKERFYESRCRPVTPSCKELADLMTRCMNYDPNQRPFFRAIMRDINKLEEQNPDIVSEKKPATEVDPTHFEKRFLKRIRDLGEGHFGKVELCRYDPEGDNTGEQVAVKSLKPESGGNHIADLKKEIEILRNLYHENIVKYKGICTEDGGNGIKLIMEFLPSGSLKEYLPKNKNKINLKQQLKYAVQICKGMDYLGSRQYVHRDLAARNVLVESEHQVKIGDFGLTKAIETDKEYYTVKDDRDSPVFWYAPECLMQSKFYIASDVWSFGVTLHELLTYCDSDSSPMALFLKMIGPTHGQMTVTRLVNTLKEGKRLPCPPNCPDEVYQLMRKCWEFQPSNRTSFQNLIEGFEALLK

`C=CC(=O)Nc1ccc(-c2ccnc(Nc3ccc(N4CCOCC4)cc3)n2)cc1`: in data set [1], the Activity entry is given as “Non-Toxic”. Moreover, the inhibition in data set [2] was 100%. The compound also returned an MRT last in data set [3] of 43.8 min. In addition, in data set [4], the inhibition at 1 h, 0.1 µM was found to be 29.5%. In [5], this compound came in with an AUC of 0.89712 µg·h/mL. Besides, the TDI result in data set [6] was “Active”. In addition, the inhibition result in [7] and in [10] was “Active” throughout. In addition, the IC50 in data set [8] came out at 1.32 µM. In data set [9], this compound had a CLz/F of 97.14 L/h/kg.
